Results taken from publication PMC6422671 (British Journal of Clinical Pharmacology, 2019).

Assay: Clinical laboratory findings: chemistry; data mean (standard deviation)
Format: in vivo, healthy men
Excerpt: Data are mean (standard deviation).

In the case of C[C@@H](N)c1cc(Cl)ccc1Cn1c(=S)[nH]c(=O)c2[nH]ccc21 [AZD4831], the ALP (5 mg fasted, 24 h) is reported as 0.997 (0.210) µkat L^–1, the ALT (5 mg fasted, 24 h) is reported as 0.397 (0.159) µkat L^–1 and the AST (5 mg fasted, 24 h) is reported as 0.370 (0.103) µkat L^–1. For the same compound, the Albumin (5 mg fasted, 24 h) was 42.6 (2.4) g L^–1, the Bilirubin (5 mg fasted, 24 h) was 12.3 (2.6) µmol L^–1 and the CRP (5 mg fasted, 24 h) was 0.38 (0.22) mg L^–1. The Calcium (5 mg fasted, 24 h) was 2.36 (0.04) mmol L^–1, the Creatinine (5 mg fasted, 24 h) was 82.2 (10.3) µmol L^–1 and the GGT (5 mg fasted, 24 h) was 0.288 (0.103) µkat L^–1. For the same compound, the Glucose (5 mg fasted, 24 h) was 4.69 (0.32) mmol L^–1, the Phosphate (5 mg fasted, 24 h) was 1.12 (0.09) mmol L^–1 and the Potassium (5 mg fasted, 24 h) was 4.14 (0.23) mmol L^–1. The Sodium (5 mg fasted, 24 h) was 136.3 (0.8) mmol L^–1, the Urea (5 mg fasted, 24 h) was 4.66 (0.90) mmol L^–1 and the ALP (5 mg fasted, 48 h) was 0.989 (0.186) µkat L^–1. For the same compound, the ALT (5 mg fasted, 48 h) was 0.405 (0.142) µkat L^–1, the AST (5 mg fasted, 48 h) was 0.357 (0.077) µkat L^–1 and the Albumin (5 mg fasted, 48 h) was 43.3 (2.1) g L^–1. For the same compound, the Bilirubin (5 mg fasted, 48 h) was 10.6 (2.3) µmol L^–1, the CRP (5 mg fasted, 48 h) was 0.48 (0.40) mg L^–1 and the Calcium (5 mg fasted, 48 h) was 2.38 (0.04) mmol L^–1. For the same compound, the Creatinine (5 mg fasted, 48 h) was 80.9 (4.7) µmol L^–1, the GGT (5 mg fasted, 48 h) was 0.287 (0.105) µkat L^–1 and the Glucose (5 mg fasted, 48 h) was 4.76 (0.32) mmol L^–1. For the same compound, the Phosphate (5 mg fasted, 48 h) was 0.99 (0.12) mmol L^–1, the Potassium (5 mg fasted, 48 h) was 4.23 (0.16) mmol L^–1 and the Sodium (5 mg fasted, 48 h) was 137.5 (0.6) mmol L^–1. The Urea (5 mg fasted, 48 h) was 4.52 (1.08) mmol L^–1, the ALP (5 mg fasted, follow up) was 1.094 (0.227) µkat L^–1 and the ALT (5 mg fasted, follow up) was 0.407 (0.063) µkat L^–1. The AST (5 mg fasted, follow up) was 0.413 (0.097) µkat L^–1, the Albumin (5 mg fasted, follow up) was 45.3 (1.3) g L^–1 and the Bilirubin (5 mg fasted, follow up) was 12.5 (3.3) µmol L^–1. For the same compound, the CRP (5 mg fasted, follow up) was 1.27 (1.43) mg L^–1, the Calcium (5 mg fasted, follow up) was 2.42 (0.04) mmol L^–1 and the Creatinine (5 mg fasted, follow up) was 84.8 (9.1) µmol L^–1. The GFR (5 mg fasted, follow up) was 98 (15) mL min^–1 1.73m^–2, the GGT (5 mg fasted, follow up) was 0.307 (0.093) µkat L^–1 and the Glucose (5 mg fasted, follow up) was 4.78 (0.68) mmol L^–1. For the same compound, the Phosphate (5 mg fasted, follow up) was 1.11 (0.10) mmol L^–1, the Potassium (5 mg fasted, follow up) was 4.32 (0.22) mmol L^–1 and the Sodium (5 mg fasted, follow up) was 138.4 (1.5) mmol L^–1. For the same compound, the Urea (5 mg fasted, follow up) was 4.57 (1.29) mmol L^–1, the ALP (15 mg fasted, 24 h) was 1.165 (0.364) µkat L^–1 and the ALT (15 mg fasted, 24 h) was 0.475 (0.222) µkat L^–1. The AST (15 mg fasted, 24 h) was 0.394 (0.098) µkat L^–1, the Albumin (15 mg fasted, 24 h) was 43.2 (2.7) g L^–1 and the Bilirubin (15 mg fasted, 24 h) was 14.5 (6.3) µmol L^–1. For the same compound, the CRP (15 mg fasted, 24 h) was 0.53 (0.28) mg L^–1, the Calcium (15 mg fasted, 24 h) was 2.35 (0.11) mmol L^–1 and the Creatinine (15 mg fasted, 24 h) was 76.2 (10.7) µmol L^–1. For the same compound, the GGT (15 mg fasted, 24 h) was 0.504 (0.232) µkat L^–1, the Glucose (15 mg fasted, 24 h) was 4.57 (0.21) mmol L^–1 and the Phosphate (15 mg fasted, 24 h) was 1.14 (0.14) mmol L^–1. The Potassium (15 mg fasted, 24 h) was 4.12 (0.24) mmol L^–1, the Sodium (15 mg fasted, 24 h) was 137.5 (1.0) mmol L^–1 and the Urea (15 mg fasted, 24 h) was 4.35 (0.61) mmol L^–1. The ALP (15 mg fasted, 48 h) was 1.159 (0.329) µkat L^–1, the ALT (15 mg fasted, 48 h) was 0.515 (0.255) µkat L^–1 and the AST (15 mg fasted, 48 h) was 0.406 (0.116) µkat L^–1. The Albumin (15 mg fasted, 48 h) was 44.2 (2.6) g L^–1, the Bilirubin (15 mg fasted, 48 h) was 13.6 (6.0) µmol L^–1 and the CRP (15 mg fasted, 48 h) was 0.62 (0.40) mg L^–1. The Calcium (15 mg fasted, 48 h) was 2.37 (0.10) mmol L^–1, the Creatinine (15 mg fasted, 48 h) was 75.9 (12.3) µmol L^–1 and the GGT (15 mg fasted, 48 h) was 0.501 (0.243) µkat L^–1. The Glucose (15 mg fasted, 48 h) was 4.72 (0.23) mmol L^–1, the Phosphate (15 mg fasted, 48 h) was 1.11 (0.16) mmol L^–1 and the Potassium (15 mg fasted, 48 h) was 4.23 (0.25) mmol L^–1. For the same compound, the Sodium (15 mg fasted, 48 h) was 138.8 (0.8) mmol L^–1, the Urea (15 mg fasted, 48 h) was 4.30 (0.74) mmol L^–1 and the ALP (15 mg fasted, follow up) was 1.240 (0.380) µkat L^–1. The ALT (15 mg fasted, follow up) was 0.504 (0.193) µkat L^–1, the AST (15 mg fasted, follow up) was 0.420 (0.085) µkat L^–1 and the Albumin (15 mg fasted, follow up) was 45.2 (3.1) g L^–1. The Bilirubin (15 mg fasted, follow up) was 11.3 (5.5) µmol L^–1, the CRP (15 mg fasted, follow up) was 1.37 (0.47) mg L^–1 and the Calcium (15 mg fasted, follow up) was 2.38 (0.14) mmol L^–1. The Creatinine (15 mg fasted, follow up) was 78.4 (9.8) µmol L^–1, the GFR (15 mg fasted, follow up) was 114 (12) mL min^–1 1.73m^–2 and the GGT (15 mg fasted, follow up) was 0.534 (0.262) µkat L^–1. The Glucose (15 mg fasted, follow up) was 4.62 (0.45) mmol L^–1, the Phosphate (15 mg fasted, follow up) was 1.15 (0.08) mmol L^–1 and the Potassium (15 mg fasted, follow up) was 4.39 (0.30) mmol L^–1. For the same compound, the Sodium (15 mg fasted, follow up) was 136.9 (1.1) mmol L^–1, the Urea (15 mg fasted, follow up) was 4.79 (1.46) mmol L^–1 and the ALP (45 mg fasted, 24 h) was 1.061 (0.228) µkat L^–1. The ALT (45 mg fasted, 24 h) was 0.329 (0.098) µkat L^–1, the AST (45 mg fasted, 24 h) was 0.293 (0.069) µkat L^–1 and the Albumin (45 mg fasted, 24 h) was 41.6 (2.4) g L^–1. The Bilirubin (45 mg fasted, 24 h) was 12.0 (3.5) µmol L^–1, the CRP (45 mg fasted, 24 h) was 0.77 (0.71) mg L^–1 and the Calcium (45 mg fasted, 24 h) was 2.34 (0.05) mmol L^–1. The Creatinine (45 mg fasted, 24 h) was 75.8 (7.2) µmol L^–1, the GGT (45 mg fasted, 24 h) was 0.315 (0.072) µkat L^–1 and the Glucose (45 mg fasted, 24 h) was 4.90 (0.29) mmol L^–1. The Phosphate (45 mg fasted, 24 h) was 1.17 (0.08) mmol L^–1, the Potassium (45 mg fasted, 24 h) was 4.29 (0.10) mmol L^–1 and the Sodium (45 mg fasted, 24 h) was 139.2 (1.7) mmol L^–1. The Urea (45 mg fasted, 24 h) was 4.25 (0.47) mmol L^–1, the ALP (45 mg fasted, 48 h) was 1.097 (0.257) µkat L^–1 and the ALT (45 mg fasted, 48 h) was 0.319 (0.095) µkat L^–1. The AST (45 mg fasted, 48 h) was 0.288 (0.074) µkat L^–1, the Albumin (45 mg fasted, 48 h) was 42.5 (2.7) g L^–1 and the Bilirubin (45 mg fasted, 48 h) was 12.3 (3.3) µmol L^–1. For the same compound, the CRP (45 mg fasted, 48 h) was 0.58 (0.49) mg L^–1, the Calcium (45 mg fasted, 48 h) was 2.34 (0.05) mmol L^–1 and the Creatinine (45 mg fasted, 48 h) was 73.2 (6.4) µmol L^–1. For the same compound, the GGT (45 mg fasted, 48 h) was 0.312 (0.064) µkat L^–1, the Glucose (45 mg fasted, 48 h) was 5.06 (0.19) mmol L^–1 and the Phosphate (45 mg fasted, 48 h) was 1.12 (0.09) mmol L^–1. The Potassium (45 mg fasted, 48 h) was 4.18 (0.20) mmol L^–1, the Sodium (45 mg fasted, 48 h) was 140.9 (2.2) mmol L^–1 and the Urea (45 mg fasted, 48 h) was 4.24 (0.55) mmol L^–1. The ALP (45 mg fasted, follow up) was 1.165 (0.282) µkat L^–1, the ALT (45 mg fasted, follow up) was 0.324 (0.059) µkat L^–1 and the AST (45 mg fasted, follow up) was 0.356 (0.054) µkat L^–1. The Albumin (45 mg fasted, follow up) was 44.1 (2.6) g L^–1, the Bilirubin (45 mg fasted, follow up) was 12.9 (5.6) µmol L^–1 and the CRP (45 mg fasted, follow up) was 2.89 (5.30) mg L^–1. For the same compound, the Calcium (45 mg fasted, follow up) was 2.35 (0.04) mmol L^–1, the Creatinine (45 mg fasted, follow up) was 74.6 (9.2) µmol L^–1 and the GFR (45 mg fasted, follow up) was 112 (12) mL min^–1 1.73m^–2. For the same compound, the GGT (45 mg fasted, follow up) was 0.300 (0.052) µkat L^–1, the Glucose (45 mg fasted, follow up) was 4.84 (0.54) mmol L^–1 and the Phosphate (45 mg fasted, follow up) was 1.12 (0.20) mmol L^–1. For the same compound, the Potassium (45 mg fasted, follow up) was 4.18 (0.18) mmol L^–1, the Sodium (45 mg fasted, follow up) was 139.5 (1.3) mmol L^–1 and the Urea (45 mg fasted, follow up) was 3.90 (0.63) mmol L^–1.
